# Measurements: patent US12648997B2, “Treatment of infections” (priority 2018, dated 2026)
# Columns and labels:
# [1] = Stability of daptomycin in transient daptomycin-linker hydrogel conjugates versus free daptomycin; type: physicochemical; settings: pH 7.4, 37° C, at day seven; peak area ratio at 215 nm
# Procedure: The relative stability of the covalently bound daptomycin in the transient daptomycin-linker hydrogel conjugates towards hydrolytic and other degradation pathways in comparison to free daptomycin was investigated. For that purpose, free daptomycin, transient daptomycin-linker HA-conjugate 5 and transient daptomycin-linker PEG-conjugate 9b were incubated at pH 7.4 and 37° C. The supernatants of the carrier samples were exchanged five times within a week and the daptomycin purity in these samples was analyzed by UPLC. In parallel, analytical samples of the free daptomycin control solution were also analyzed by UPLC at the same incubation times. The purity of daptomycin in the samples was calculated as the ratio of the peak area of the intact daptomycin peak at 215 nm relative to the area sum of all daptomycin-related peaks identified at 215 nm.
# [2] = system: Methicillin-sensitive Staphylococcus aureus (MSSA) MN8 strain biofilms; assay: In vitro biofilm eradication study (Calgary Biofilm Device); type: cell-based; settings: TSB with 12 mg/mL BSA and 50 μg/mL calcium, 37° C, OD600
# Procedure: This study was performed to investigate the daptomycin concentration required to fully eradicate biofilms when constantly exposed to daptomycin for one or three days. […] Biofilms were grown in tryptic soy broth (TSB) using a Methicillin-sensitive Staphylococcus aureus (MSSA) MN8 strain. Aliquots of a diluted culture of this bacterial strain in TSB, obtained from an inoculum of the respective strain on trypticase soy agar plates (TSA), were transferred to all but the negative control wells of flat-bottom 96-well microtiter plates. The bacterial biofilms were formed by immersing lids with pegs into the 96-well microtiter plates, followed by incubation for 24, 48 and 72 hours at 37° C. The differently aged biofilms were subsequently transferred into new microtiter plates using TSB media with addition of 12 mg/mL bovine serum albumin (BSA) and 50 μg/mL calcium as CaCl2. Daptomycin was added to the media as required to obtain concentrations of 2-1458 μg/mL. The plates were incubated for one or three days at 37° C. The biofilms were detached from the pegs by centrifugation, generating bacterial suspensions in the wells of the microtiter plates. The optical densities of these suspensions were measured (OD600) to determine the biofilm eradication concentrations. All measurements were performed in triplicates.
compound,measurement,setting,value
CCCCCCCCCC(=O)N[C@@H](Cc1c[nH]c2ccccc12)C(=O)N[C@H](CC(N)=O)C(=O)N[C@@H](CC(=O)O)C(=O)N[C@@H]1C(=O)NCC(=O)N[C@@H](CCCN)C(=O)N[C@@H](CC(=O)O)C(=O)N[C@H](C)C(=O)N[C@@H](CC(=O)O)C(=O)NCC(=O)N[C@H](CO)C(=O)N[C@@H]([C@H](C)CC(=O)O)C(=O)N[C@@H](CC(=O)c2ccccc2N)C(=O)O[C@@H]1C [daptomycin],purity of the free daptomycin in the solution control sample,[1],72%
same,daptomycin concentration needed to fully eradicate biofilms,"[2]; 24 hours exposure, biofilms of all ages (24, 48, 72 h)",486 µg/mL
same,daptomycin concentration needed to fully eradicate biofilms,[2]; three days exposure,162 µg/mL
